# Measured values taken from ChEMBL document CHEMBL2074023, “Reversal of acquired resistance to doxorubicin in K562 human leukemia cells by astemizole” (Biol Pharm Bull, 2000).
# Columns and labels:
# [1] = biological target: T1, ATP-dependent translocase ABCB1 (Homo sapiens, UniProt P08183); assay: TP_TRANSPORTER: inhibition of Azidopine photoaffinity labelling (Azidopine: 0.1 uM, Astemizole: 10 uM) in membranes from K562/DOX cells; type: functional, cell membranes, Membrane; conditions: k562/adr
# [2] = biological target: T1, ATP-dependent translocase ABCB1; assay: TP_TRANSPORTER: increase in Doxorubicin intracellular accumulation (Doxorubicin: 4 uM, Astemizole: 3 uM) in K562/DOX cells; type: functional, cell-based; conditions: k562/adr
# T1 sequence (P08183 whole entry): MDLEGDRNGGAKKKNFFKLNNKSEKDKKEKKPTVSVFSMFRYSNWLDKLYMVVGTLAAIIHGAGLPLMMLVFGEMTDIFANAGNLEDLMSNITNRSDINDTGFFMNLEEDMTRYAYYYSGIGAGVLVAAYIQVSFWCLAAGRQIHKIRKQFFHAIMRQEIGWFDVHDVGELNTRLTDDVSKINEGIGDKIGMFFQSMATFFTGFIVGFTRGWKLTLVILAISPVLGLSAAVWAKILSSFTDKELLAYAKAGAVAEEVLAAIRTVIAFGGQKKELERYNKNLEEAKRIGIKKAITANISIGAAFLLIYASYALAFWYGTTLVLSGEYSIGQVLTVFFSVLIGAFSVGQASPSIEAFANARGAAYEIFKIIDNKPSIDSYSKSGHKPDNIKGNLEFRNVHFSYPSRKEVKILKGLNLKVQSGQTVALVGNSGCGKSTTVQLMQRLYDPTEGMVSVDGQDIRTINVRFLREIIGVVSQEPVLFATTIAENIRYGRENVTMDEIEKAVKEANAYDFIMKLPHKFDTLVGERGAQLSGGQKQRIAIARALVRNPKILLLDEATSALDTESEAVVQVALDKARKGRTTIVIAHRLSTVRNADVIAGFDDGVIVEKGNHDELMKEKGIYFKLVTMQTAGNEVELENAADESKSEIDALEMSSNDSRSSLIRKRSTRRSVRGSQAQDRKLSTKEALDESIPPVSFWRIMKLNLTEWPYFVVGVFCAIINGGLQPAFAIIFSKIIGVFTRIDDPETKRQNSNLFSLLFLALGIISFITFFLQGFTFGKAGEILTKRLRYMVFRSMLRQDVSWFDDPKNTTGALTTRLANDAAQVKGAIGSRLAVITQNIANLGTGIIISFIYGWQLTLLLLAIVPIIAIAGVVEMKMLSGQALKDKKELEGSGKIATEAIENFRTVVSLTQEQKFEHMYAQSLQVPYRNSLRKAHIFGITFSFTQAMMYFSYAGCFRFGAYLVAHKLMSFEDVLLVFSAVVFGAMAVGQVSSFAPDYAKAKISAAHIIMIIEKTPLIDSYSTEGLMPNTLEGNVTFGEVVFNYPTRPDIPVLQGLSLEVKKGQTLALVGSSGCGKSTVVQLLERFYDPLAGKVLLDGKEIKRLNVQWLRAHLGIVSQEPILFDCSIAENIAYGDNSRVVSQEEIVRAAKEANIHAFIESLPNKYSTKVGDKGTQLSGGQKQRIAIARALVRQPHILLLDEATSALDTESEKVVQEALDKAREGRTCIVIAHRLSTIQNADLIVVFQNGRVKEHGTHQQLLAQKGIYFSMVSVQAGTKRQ
structure (smiles),measurement,setting,value
COc1ccc(CCN2CCC(Nc3nc4ccccc4n3Cc3ccc(F)cc3)CC2)cc1 [ASTEMIZOLE],Activity,[1],inhibitor [+]
same,Activity,[2],inhibitor [+]
